pIC50: −log10 of the molar value. Values after ≈ are worked out from the molar mass of the structure shown. Where a name gives a salt, the structure may show the parent alone. Read-outs that look alike come from different tables or passages of the source. Where a SMILES comes first, the peptide text is derived from it. [ ]: non-standard residue; d: D form. The star is where a group is joined. sY = N[C@@H](Cc1ccc(OS(=O)(=O)O)cc1)C(=O)O; Cbz = O=C(OCc1ccccc1)*; Boc = CC(C)(C)OC(=O)*
Assays:
CCK receptor = settings: cited from earlier work
CCK receptor (pancreas) = biological target: T1, CCK receptor (pancreas) (Rattus norvegicus, UniProt P30551); assay: CCK receptor binding (pancreas) method, 125I-CCK; set-up: species or system rat (male Sprague-Dawley); settings: for pIC50: I-CCK-8 Pancreas assay, read-out: Anti-CCK Activity IC50; for effect on the 125I-CCK receptor binding assay (in words): additional protease inhibitors in assay buffer
T1 construct: The whole pancreas of a male Sprague-Dawley rat (200-350 g); from tissue; host or cells: whole pancreas of male Sprague-Dawley rat, washed membrane homogenate
T1 sequence (P30551 1-444): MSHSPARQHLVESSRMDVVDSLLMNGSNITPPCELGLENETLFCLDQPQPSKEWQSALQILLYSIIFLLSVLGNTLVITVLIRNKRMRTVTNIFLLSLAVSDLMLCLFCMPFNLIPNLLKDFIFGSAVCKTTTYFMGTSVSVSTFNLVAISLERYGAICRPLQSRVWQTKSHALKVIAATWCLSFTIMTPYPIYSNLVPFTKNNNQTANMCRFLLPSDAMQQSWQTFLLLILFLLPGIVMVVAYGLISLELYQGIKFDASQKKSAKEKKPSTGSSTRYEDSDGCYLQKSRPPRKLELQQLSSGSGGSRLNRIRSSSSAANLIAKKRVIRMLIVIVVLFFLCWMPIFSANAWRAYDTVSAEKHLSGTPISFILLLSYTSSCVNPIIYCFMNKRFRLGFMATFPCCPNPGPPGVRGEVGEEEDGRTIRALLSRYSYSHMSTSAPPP
Procedure: Screening of the novel compounds according to the present invention to determine biological activity and obtain an IC50 value for them, in order to identify significant CCK-antagonism, may be accomplished using an ^125 I-CCK receptor binding assay and in vitro isolated tissue preparations. These tests involve the following:
CCK receptor binding (pancreas) method
[…] (J. Biol. Chem., 254, 9349-9351, 1979). Receptor binding is performed according to Innis and Snyder (Proc. Natl. Acad. Sci., 77, 6917-6921, 1980), with the minor modification of adding the additional protease inhibitors, phenyl-methane sulfonyl fluoride and o-phenanthroline, which have no effect on the ^125 I-CCK receptor binding assay.
The whole pancreas of a male Sprague-Dawley rat (200-350 g), which has been sacrificed by decapitation, is dissected free of fat tissue and homogenized in 20 volumes of ice-cold 50 mM Tris HCl (pH 7.7 at 25° C.) with a Brinkman Polytron PT-10. The homogenates are centrifuged at 48,000 g for 10 minutes, then the resulting pellets are resuspended in Tris Buffer, centrifuged as above, and resuspended in 200 volumes of binding assay buffer (50 mM Tris HCl, pH 7.7 at 25° C., 5 mM dithiothreitol, 0.1 mM bacitracin, 1.2 mM phenylmethane sulfonyl fluoride and 0.5 mM o-phenanthroline).
For the binding assay, 25 μl of buffer (for total binding), or unlabeled CCK-8 sulfate sufficient to give a final concentration of 1 μM of CCK-8 (for nonspecific binding), or the compounds of the formula of the compounds according to the instant invention ([…]), are added to 450 μl of the membrane suspensions in microfuge tubes. All assays are run in duplicate or triplicate, and the reaction mixtures are incubated at 37° C. for 30 minutes and centrifuged in a Beckman Microfuge (4 minutes) immediately after adding 1 ml of ice-cold incubation buffer. The supernatant is aspirated and discarded, and the pellets are counted with a Beckman Gamma 5000.
The compounds of Examples 1-9 were tested for solubility in deionized water and pH 7.4 phosphate buffer and as CCK-antagonists (pancreas assay) with the following results: […]

[1] = Solubility in deionized water and pH 7.4 phosphate buffer; assay type: physicochemical
[2] = Solubility / stability and absorption stated in the text (no method described); assay type: physicochemical; settings: white powder
[3] = compound of the earlier filing U.S. Pat. No. 4,530,790; cited from earlier work
[4] = deionized water, water, H2O (deionized water), read-out: Solubility
[5] = phosphate buffer, pH 7.4, aqueous buffer, pH 7.4 Buffer, read-out: Solubility

In the case of `CSCC[C@H](NC(=O)OC(C)(C)C)C(=O)N[C@@H](CC(=O)O)C(=O)N[C@@H](Cc1ccccc1)C(N)=O` [Boc-Met-Asp-Phe-NH2] (Boc-Met-Asp-Phe-NH2), the “CCK-antagonist activity (in words)” value (CCK receptor) is given as “can function as CCK-antagonists”.

In the case of `CSCC[C@H](NC(=O)[C@H](Cc1ccc(OS(=O)(=O)O)cc1)NC(=O)OCc1ccccc1)C(=O)NCC(=O)N[C@@H](Cc1c[nH]c2ccccc12)C(=O)N[C@@H](CCSC)C(=O)N[C@@H](CC(=O)O)C(N)=O` [Cbz-Tyr(SO3 H)-Met-Gly-Trp-Met-Asp-NH2] (Cbz-[sY]MGWMD-NH2), the “CCK-antagonist activity (in words)” value (CCK receptor) is given as “can function as CCK-antagonists”.

`CC(C)C[C@H]1C(=O)N2c3ccccc3[C@@](O)(C[C@@H]3NC(=O)c4ccccc4-n4c3nc3ccccc3c4=O)[C@H]2N1C(=O)CCC(=O)O` [Example 1, 2,3,9,9Aα-tetrahydro-9α-hydroxy-2-(2-methylpropyl)-γ,3-dioxo-9-(5,6,7,13-tetrahydro-5,13-dioxoquinazolino(3,2-A)-1,4-benzodiazepin-7-yl)-1H-imidazo(1,2-A)indole-1-butanoic acid] gave a pIC50 (CCK receptor (pancreas)) of 3.64, a Solubility [1, 4] of 280 µg/mL (≈ 0.44 mM) and a Solubility [1, 5] of 9500 µg/mL (≈ 14.9 mM).

For `CC(C)CC1C(=O)N2c3ccccc3C(O)(C3NC(=O)c4ccccc4-n4c3nc3ccccc3c4=O)C2N1C(=O)CCC(=O)[O-].[Na+]` (stereo not drawn) [Example 2, sodium 2,3,9,9Aα-tetrahydro-9α-hydroxy-2-(2-methylpropyl)-γ,3-dioxo-9-(5,6,7,13-tetrahydro-5,13-dioxoquinazolino(3,2-A)-1,4-benzodiazepin-7-yl)-1H-imidazo(1,2-A)indole-1-butanoate], the pIC50 (CCK receptor (pancreas)) was 4.57 and the Solubility ([1]; H2O (deionized water)) was 72000 µg/mL.

In the case of `CC(C)C[C@H]1C(=O)N2c3ccccc3[C@@](O)(C[C@@H]3NC(=O)c4ccccc4-n4c3nc3ccccc3c4=O)[C@H]2N1C(=O)[C@@H](N)CCCCN` [Example 3, dihydrochloride], the pIC50 (CCK receptor (pancreas)) was 5.42 and the “water-soluble (in words)” value [2] was “water-soluble”.

In the case of `CC(C)C[C@H]1C(=O)N2c3ccccc3[C@@](O)(C[C@@H]3NC(=O)c4ccccc4N4C(=O)c5ccccc5NC34)[C@H]2N1C(=O)CCC(=O)O` (stereo partly drawn) [Example 4, 9-(5,6,7,7A,8,13-hexahydro-5,13-dioxoquinazolino(3,2-A)-1,4-benzodiazepin-7-yl)-2,3,9,9A-tetrahydro-9α-hydroxy-2-(2-methylpropyl)-γ,3-dioxo-1H-imidazo(1,2-A)indole-1-butanoic acid dihydrate], the pIC50 (CCK receptor (pancreas)) was 5.21, the Solubility ([1]; H2O (deionized water), dihydrate) was 540 µg/mL and the Solubility [1, 5] was 10800 µg/mL.

Work on `CC(C)C[C@H]1C(=O)N2c3ccccc3[C@@](O)(C[C@@H]3NC(=O)c4ccccc4N4C(=O)c5ccccc5NC34)[C@H]2N1C(=O)CCC(=O)O` (stereo partly drawn) [Example 5, sodium 9-(5,6,7,7A,8,13-hexahydro-5,13-dioxoquinazolino(3,2-A)-1,4-benzodiazepin-7-yl)2,3,9,9A-tetrahydro-9α-hydroxy-2-(2-methylpropyl)-γ,3-dioxo-1H-imidazo(1,2-A)indole-1-butanoate trihydrate] yielded a pIC50 (CCK receptor (pancreas)) of 5.77 and a Solubility ([1]; H2O (deionized water), trihydrate) of over 8900 µg/mL.

`CC(C)C[C@H]1C(=O)N2c3ccccc3[C@@](O)(C[C@@H]3NC(=O)c4ccccc4-n4c3nc3ccccc3c4=O)[C@H]2N1C(=O)[C@@H](N)CCCNC(=O)OCc1ccccc1` [Example 6, 1,2,9,9Aα-tetrahydro-9α-hydroxy-1-[2-amino-5-((phenylmethoxy)carbonyl)aminopentanoyl]-2-(2-methylpropyl)-9-[(5,6,7,13-tetrahydro-5,13-dioxoquinazolino(3,2-A)-1,4-benzodiazepin-7-yl)methyl]-3H-imidazo(1,2-A)indol-3-one hydrochloride] gave a pIC50 (CCK receptor (pancreas)) of 5.74 and a Solubility [1, 4] of 240 µg/mL.

Molecule `CC(C)C[C@H]1C(=O)N2c3ccccc3[C@@](O)(C[C@@H]3NC(=O)c4ccccc4N4C(=O)c5ccccc5NC34)[C@H]2N1CC(=O)O` (stereo partly drawn) [Example 7, 7β-[(1-carboxymethyl-2,3,9,9Aα-tetrahydro-9α-hydroxy-2-(2-methylpropyl)-3-oxo-1H-imidazo(1,2-A)indol-9-yl)methyl]-6,7,7A-8-tetrahydro-5H,13H-quinazolino(3,2-A)-1,4-benzodiazepin-5H,13-dione solvate] has a pIC50 (CCK receptor (pancreas)) of 5.85 and a Solubility ([1]; H2O (deionized water)) of 10500 µg/mL.

In the case of `CC(C)C[C@H]1C(=O)N2c3ccccc3[C@@](O)(C[C@@H]3NC(=O)c4ccccc4N4C(=O)c5ccccc5NC34)[C@H]2N1CC(=O)O` (stereo partly drawn) [Example 8, 7β-[(1-carboxymethyl-2,3,9,9Aα-tetrahydro-9α-hydroxy-2-(2-methylpropyl)-3-oxo-1H-imidazo(1,2-A)indol-9-yl)methyl]-6,7,7A-8-tetrahydro-5H,13H-quinazolino(3,2-A)-1,4-benzodiazepin-5H,13-dione sodium salt solvate], the pIC50 (CCK receptor (pancreas)) was 6.10 and the Solubility ([1]; H2O (deionized water)) was over 5200 µg/mL.

For `CC(C)C[C@@H]1N[C@H]2N(C1=O)c1ccccc1[C@]2(C[C@@H]1NC(=O)c2ccccc2-n2c1nc1ccccc1c2=O)OC(=O)CCC(=O)O` [Example 9, 7β-[(2,3,9,9Aα-tetrahydro-9α-(3-carboxy-1-oxopropoxy)-2-(2-methylpropyl)-3-oxo-1H-imidazo(1,2-A)indol-9-yl)methyl]quinazolino(3,2-A)-1,4-benzodiazepin-5,13-(6H,7H)-dione monohydrate], the pIC50 (CCK receptor (pancreas)) was 4.07.

For `CSCC[C@H](N)C(=O)N[C@@H](CC(=O)O)C(=O)N[C@@H](Cc1ccccc1)C(N)=O` [Met-Asp-Phe-NH2] (H-Met-Asp-Phe-NH2), the “CCK-antagonist activity (in words)” value (CCK receptor) is given as “can function as CCK-antagonists”.

In the case of `CCCC(=O)Nc1nc2c(ncn2[C@@H]2O[C@@H]3COP(=O)(O)O[C@H]3[C@H]2OC(=O)CCC)c(=O)[nH]1` [dibutyryl cyclic GMP], the “relative CCK antagonist potency within cyclic nucleotide class (in words)” value (CCK receptor; derivatives of cyclic nucleotides, structure-function studies) is listed as “the most potent”.

In the case of `CC(C)C[C@@H]1N[C@H]2N(C1=O)c1ccccc1[C@@]2(O)C[C@@H]1NC(=O)c2ccccc2-n2c1nc1ccccc1c2=O` [formula (I), 7β-((2,3,9,9Aα-tetrahydro-9α-hydroxy-2-(2-methylpropyl)-3-oxo-1H-imidazo-(1,2-A)-indol-9-yl)-methyl)quinazolino(3,2-A)(1,4) benzodiazepin-5,13-(6H,7H)dione], the “solubility in water (in words)” value [3] is listed as “only slightly soluble in water” and the “CCK-antagonist activity (in words)” value (CCK receptor) is listed as “has been shown to be a CCK-antagonist”.

For `c1cnc2c(c1)ccc1cccnc12` [o-phenanthroline, reference compound], the “effect on the 125I-CCK receptor binding assay (in words)” value (CCK receptor (pancreas)) was “no effect”.

With `O=S(=O)(F)Cc1ccccc1` [phenyl-methane sulfonyl fluoride, reference compound] the “effect on the 125I-CCK receptor binding assay (in words)” value (CCK receptor (pancreas)) was “no effect”.
